Reference: patent publication US11987807B2, “Isolated human lung progenitor cells and uses thereof” (THE GENERAL HOSPITAL CORPORATION, priority 2012, dated 2024)
Where two headings read alike, the source gives them in different places.

Legend:
[1] = test system: mouse ES cell-derived definitive endoderm; experiment: Anteriorization of mouse ESC-derived definitive endoderm to FoxA2+Sox2+ anterior foregut endoderm; assay type: cell-based; details: for effect on FoxA2+Sox2+ cells: treatment of definitive endoderm at the anteriorization step
Procedure: This technology was adapted herein to generate definitive endoderm (DE) from mouse ES cells. […] Next, it was asked if the newly generated DE cells have the competence to generate Nkx2.1+ cells. […] Since the inventors had already incorporated BMP inhibition during DE generation (FIG. 7), the question whether continuous BMP inhibition is necessary for anteriorization or if TGFβ inhibition alone was sufficient for anterior patterning was explored. Endoderm was treated with combinations of Activin (a TGFβ agonist), A-83-01 (a TGFβ antagonist), BMP4, and Dorsomorphin (a BMP4 antagonist) for 2 days (FIG. 2B). The number of FoxA2+Sox2+ anterior endoderm cells was compared to the total number of FoxA2+ endoderm cells (FIG. 2B). The treated cells were further exposed to the BMP4/FGF2/WNT agonist cocktail for another 2 days to examine their competence to generate Nkx2.1+ cells (FIG. 2B). […] It was tested if their inhibition would enhance anteriorization together with a TGFβ inhibitor.
Mouse Endoderm Anteriorization and Nkx2.1 Cell Differentiation: Mouse definitive endoderm was generated as described herein. To anteriorize endoderm, on and after day 5, the cells were split and re-seeded on to the plates pre-coated with 804G-conditioned medium and fed with DO medium+0.5-1 μM A8301 (CalBiochem, 616454) for 2 days. Then the media was rinsed with DO medium 2 times and switched to DO medium supplemented with 50 ng/ml BMP4, 100 ng/ml FGF2 (GIBCO, PHG0026), and 5-10 nM GSK3iXV for another 2-3 days. To generate Nkx2.1+Sox2+ proximal progenitor cells, the cells were rinsed with DO medium 2 times and switched to DO medium containing RA-supplemented B27, 50 ng/ml BMP7, 50 ng/ml FGF7, 100 nM IWR-1, and 1-2 μM PD98059 for 2 days or longer times.
Immunofluorescence: At each differentiation step, the cells were fixed with fresh paraformaldehyde (4%) for 15 min at room temperature, rinsed in PBS, washed with PBS+0.2% Triton X-100 and incubated with the primary antibodies at 4° C. overnight (>16 hrs) diluted in PBS+1% BSA. Following incubation, the cells were rinsed 4 times PBS+0.2% Triton X-100, and incubated with secondary antibodies at room temperature for 2 hours. The images were visualized using an Olympus IX71 inverted fluorescence microscope or a Nikon A1 Confocal Laser microscope.
The secondary antibodies were purchased from Invitrogen (AlexaFluor-549 and AlexaFluor-488). The quantification was performed by counting at least 5 random fields at 20× magnification and calculating the average and standard deviation.

[2] = test system: mouse ESC-derived endoderm / anterior foregut endoderm cells; details: for NKX2.1 induction: anteriorized endoderm, BMP4 alone, or FGF2 or/and GSK3i without BMP4
Source text: Dorsomorphin inhibits BMP signaling through the SMAD pathway while PD98059 inhibits MAPK signaling.
A recent report described a monolayer-based strategy using synergistic activation of Nodal and Wnt-β-catenin signaling as well as staged BMP4 inhibition to direct mouse ES cells towards an endoderm fate with high efficiency (Sherwood et al., 2011). This technology was adapted herein to generate definitive endoderm (DE) from mouse ES cells. […] Snoeck and colleagues reported that Noggin (a BMP inhibitor) synergized with SB431542 (a TGFβ inhibitor) to suppress a posterior endoderm fate (Cdx2+) in favor of an anterior endoderm fate (Sox2+) (Green et al., 2011). […] Endoderm was treated with combinations of Activin (a TGFβ agonist), A-83-01 (a TGFβ antagonist), BMP4, and Dorsomorphin (a BMP4 antagonist) for 2 days (FIG. 2B). The number of FoxA2+Sox2+ anterior endoderm cells was compared to the total number of FoxA2+ endoderm cells (FIG. 2B). The treated cells were further exposed to the BMP4/FGF2/WNT agonist cocktail for another 2 days to examine their competence to generate Nkx2.1+ cells (FIG. 2B). […] It was tested if their inhibition would enhance anteriorization together with a TGFβ inhibitor.
The expression of lung and other anterior cell fate lineage genes including FoxN1 (thymus), Pax8 (thyroid), and Pax9 and Tbx1 (pharyngeal pouch endoderm) was analyzed by real-time qPCR (Figure S4A).
It was tested if BMP4, FGF2, and WNT signaling are each required to specify lung endoderm from the anterior foregut in an in vitro mouse ESC differentiation system. To do this, anteriorized endoderm cells were exposed to combinations of BMP4, FGF2 and WNT agonists and antagonists (FIGS. 3A and B).
These complexes translocate to the nucleus and activate expression of target genes (von Bubnoff and Cho, 2001; Chen et al., 2004; Sieber et al., 2009; Miyazono et al., 2010). Besides Smad1/5/8-mediated transcription, BMP-induced receptor complexes can activate the mitogen-activated protein kinase (MAPK) pathway via ERK, […] or p38 (Kozawa et al., 2002).
(§1) Mouse Endoderm Anteriorization and Nkx2.1 Cell Differentiation: Mouse definitive endoderm was generated as described herein. To anteriorize endoderm, on and after day 5, the cells were split and re-seeded on to the plates pre-coated with 804G-conditioned medium and fed with DO medium+0.5-1 μM A8301 (CalBiochem, 616454) for 2 days.

[3] = test system: human Cystic Fibrosis iPSC-derived definitive endoderm cells; experiment: Anteriorization of human Cystic Fibrosis iPSC-derived definitive endoderm (SOX2 induction); assay type: cell-based
Procedure: FIG. 6 is a schematic depicting an exemplary strategy and time line to generate Nkx2.1+ lung multipotent progenitors from human iPSCs. Data from the experiment indicate a step-wise differentiation of Nkx2.1+ lung progenitors from human iPSCs. A high yield of definitive endoderm from CF1 RiPS cells was obtained after treatment for 4 days in RPMI-1640 media in the presence of 2% B27 supplement, Activin A (100 ng/ml) and 5 μM PI3 Kinase inhibitor LY294002 with more than 90% of cells co-expressing transcription factors SOX17 and FOXA2 (data not shown). Anteriorization of endoderm into foregut endoderm cells was observed by detecting SOX2 expression in Foxa2+ cells derived from CF1 RiPS cells after 4 days of treatment with 500 nM A-83-01 (TGFβ antagonist) and 100 ng/ml Noggin (BMP4 antagonist) (data not shown). NKX2.1 staining was performed after anteriorization to foregut cells at D8 with serum-free medium containing 20 ng/ml BMP4, 20 ng/ml FGF2 and 5 nM GSK3iXV for 4 days (data not shown). […] In addition, confocal images following immunofluorescence staining indicates some Nkx2.1+ sphere contain basal cells positive for p63 (data not shown).
By using anteriorization conditions similar to Green et al., the induction of SOX2 expression in DE cells was obtained with efficiencies of up to 50%-60% after 4 days of treatment with A-83-01 (a TGFβ antagonist; data not shown). […]

[4] = test system: mouse ESC-derived Nkx2.1+ cells; experiment: Generation of proximal airway progenitors from mouse ESC-derived Nkx2.1+ lung endoderm cells; assay type: cell-based
Procedure: as §1

[5] = test system: human iPSC-derived Foxa2+Sox2+ anterior endoderm; experiment: Chemical screening and differentiation of Nkx2.1+ lung progenitors from human iPSC-derived Foxa2+Sox2+ anterior endoderm; assay type: cell-based
Procedure: In order to increase the efficiency of Nkx2.1+ lung progenitor production, the inventors performed an unbiased high throughput chemical screening on a kinase pathway inhibitor library and an NIH clinical drug library to identify small molecule compounds and FDA-approved clinical drugs that can facilitate NKX2.1-positive lung progenitor differentiation. The platform for chemical screening is illustrated in FIG. 14A. The screening was performed at the step of conversion of Foxa2+Sox2+ anterior endoderm to Nkx2.1+ lung endoderm.
At least five molecules were identified from the Kinase Compound Set (240 compounds) and at least 6 drugs were identified from the NIH Clinical Collection (400 compounds) that produced statistically significant (more than 3 fold) increases in the percentage of Nkx2.1+ cells (FIG. 14B). These Nkx2.1+ cells have been further stained in separate experiments to exclude the expression of neuronal lineage marker Tuj1 and thyroid lineage marker Pax8. In addition, all positive candidates identified in the primary screen have been assessed for drug duration and dose effects to increase the formation of lung progenitors, and they have been evaluated for other effects including inducing cytotoxicity, and cellular proliferation by Ki67 staining. […] It was also determined that BMP4 is dispensable for human lung progenitor differentiation from iPSCs, indicating a species difference in lung development in human and mouse.
Several of these negative compounds are MEK1/2 antagonists. […] For example, endoderm-specific deletion of MEK1/2 results in lung agenesis in mice (unpublished data).
After studying the additive and synergistic effects of the positive hits, a robust and economically efficient new protocol was devised for the generation of a highly enriched population of Nkx2.1+ lung progenitors (up to 85%-90%) from multiple iPS cell lines in xeno-free conditions in order to keep the cells suitable for future clinical applications. This exemplary differentiation medium contains one Wnt agonist (e.g., 0.5 uM CHIR9902), one PI3 kinase inhibitor (e.g., 0.02-0.05 uM PIK-75), one clinically used drug (e.g., 0.02-0.05 uM methotrexate), one BMP antagonist (e.g., 2-4 uM Dorsomorphin) and a single growth factor (e.g., 10-50 ng/ml FGF2). FIG. 12 is the summary of the newly developed step-wise airway progenitor differentiation protocol from iPSC to airway progenitors. Many other protocols can be generated by one of skill in the art from this basic protocol (RPMI+2% B27+10-50 ng/ml FGF2+0.5 uM CHIR9902+2-4 uM Dorsomorphin) together with the compounds listed in FIG. 14.

Q: Cc1cccc(-c2nn(C(=S)Nc3ccccc3)cc2-c2ccnc3ccccc23)n1 [A-83-01] was tested. Which “FoxA2+Sox2+ anterior endoderm (of total FoxA2+ cells)” value ([1]; TGFβ inhibition, 2 days) did it give?
A: The value was 40%-55.

Q: And the “Nkx2.1+ cells (of total cells)” value ([2]; after 2 days TGFβ inhibition, then BMP4/FGF2/WNT agonist cocktail 2 days)?
A: Its value is 7%-13.

Q: And the “induction of SOX2 expression in DE cells, efficiency” value ([3]; 4 days of treatment)?
A: Its value is 50%-60.

Q: How did the NKX2.1 induction [2] turn out when COC(=O)c1ccc[cH-]1.O=C1NC(=O)c2c1c1cccnc1c1[n-]c3c(Br)cc(O)cc3c21.[CH+]=O.[Ru] [GSK3i] was run?
A: The NKX2.1 induction was “not sufficient for NKX2.1 induction”.

Q: With O=C(Nc1cccc2cccnc12)c1ccc(N2C(=O)[C@@H]3[C@H](C2=O)[C@@H]2C=C[C@H]3C2)cc1 [IWR-1] as the molecule, how does the “effect on FoxA2+Sox2+ cells” value [1] read?
A: Its value is “did not increase the FoxA2+Sox2+ population”.

Q: And the “effect on Nkx2.1+Sox2+ cell production” value ([4]; individual factors removed or replaced in proximal induction medium)?
A: Its value is “most pronounced effect”.

Q: Which cell death [2] does the source give for COc1cccc(-c2cc(=O)c3ccccc3o2)c1N [PD98059] here?
A: The cell death was “Significant cell death”.

Q: And the “effect on generation of Nkx2.1+ cells” value ([2]; added to BMP4 induction (pSmad1/5/8 or MAPKK/ERK inhibition))?
A: The value was “only partially decreased the Nkx2.1+ cell proportion”.

Q: And the “Nkx2.1+Sox2+ airway progenitor cells (of total number of Nkx2.1+ cells)” value ([4]; from day 9, 2-3 days, 1%-2% before treatment)?
A: The value was “up to 18%”.

Q: For CCN(CC)CCCCNc1ncc2cc(-c3cc(OC)cc(OC)c3)c(NC(=O)NC(C)(C)C)nc2n1 [PD173074], which cell death ([1]; together with a TGFβ inhibitor at anteriorization) is on record?
A: Its cell death is “induced cell death”.

Q: For CCCCCCCCCCCCCC(=O)O[C@@H]1[C@@H](C)[C@@]2(O)[C@@H](C=C(CO)C[C@]3(O)C(=O)C(C)=C[C@@H]23)[C@@H]2C(C)(C)[C@]12OC(C)=O [phorbol 12-myristate 13-acetate], which “NKX2.1+ cell production” value ([5]; in vitro differentiation systems) is on record?
A: The value was “stimulates NKX2.1+ cell production”.

Q: Which “neuroectodermal marker Tuj1” value ([1]; BMP4 present between days 5-7) does the source give for “BMP4: bone morphogenic protein 4, growth factor” here?
A: Its value is “less neuroectodermal marker Tuj1 was present”.

Q: What about the NKX2.1 induction [2] of the same molecule?
A: Its NKX2.1 induction is “could induce NKX2.1 expression”.

Q: What about the “requirement for human lung progenitor differentiation from iPSCs” value [5] of the same molecule?
A: Its value is “dispensable”.

Q: What about the NKX2.1 expression level ([5]; addition of BMP4) of the same molecule?
A: The NKX2.1 expression level was “decreases NKX2.1 expression”.

Q: And the “total NKX2.1+ lung progenitor cell number” value ([5]; addition of BMP4)?
A: Its value is “without affecting the total NKX2.1+ lung progenitor cell number”.

Q: Which “effect on Nkx2.1+ cells” value ([2]; added dose of FGF2 despite presumptive endogenous FGF signaling) does the source give for FGF2: fibroblast growth factor here?
A: The value was “upregulated Nkx2.1+ cells”.

Q: What about the NKX2.1 induction [2] of the same molecule?
A: The NKX2.1 induction was “not sufficient for NKX2.1 induction”.

B1: BMP7: BMP family member binding type I receptor ALK2 (protein, UniProt P18075 293-431, looked up)
Bone morphogenetic protein 7: STGSKQRSQNRSKTPKNQEALRMANVAENSSSDQRQACKKHELYVSFRDLGWQDWIIAPEGYAAYYCEGECAFPLNSYMNATNHAIVQTLVHFINPETVPKPCCAPTQLNAISVLYFDDSSNVILKKYRNMVVRACGCH
Q: For B1, which “induction of Nkx2.1+ cells from the anterior endoderm compared to BMP4” value ([2]; BMP7 10 ng/ml) is on record?
A: The value was “had no effect”.

Q: What about the “induction of Nkx2.1+ cells from the anterior endoderm” value ([2]; increased concentration (>100 ng/ml)) of the same molecule?
A: Its value is “still failed to generate Nkx2.1+ cells”.

B2: Noggin: a BMP4 antagonist (protein, UniProt Q13253 28-232, looked up)
Noggin: QHYLHIRPAPSDNLPLVDLIEHPDPIFDPKEKDLNETLLRSLLGGHYDPGFMATSPPEDRPGGGGGAAGGAEDLAELDQLLRQRPSGAMPSEIKGLEFSEGLAQGKKQRLSKKLRRKLQMWLWSQTFCPVLYAWNDLGSRFWPRYVKVGSCFSKRSCSVPEGMVCKPSKSVHLTVLRWRCQRRGGQRCGWIPIQYPIISECKCSC
Q: With B2 as the molecule, how does the requirement for anteriorization [3] read?
A: The requirement for anteriorization was “not necessary”.

B3: Activin: a TGFβ agonist (protein, UniProt P08476 311-426, looked up)
Inhibin beta A chain: GLECDGKVNICCKKQFFVSFKDIGWNDWIIAPSGYHANYCEGECPSHIAGTSGSSLSFHSTVINHYRMRGHSPFANLKSCCVPTKLRPMSMLYYDDGQNIIKKDIQNMIVEECGCS
modifications: Inhibin beta A chain
notes: a TGFβ agonist
Q: With B3 as the molecule, how does the “effect on FoxA2+Sox2+ cells” value [1] read?
A: Its value is “rare FoxA2+Sox2+ cells”.

Q: And the “effect on Nkx2.1+ cells” value ([2]; treatment at the anteriorization step, then BMP4/FGF2/WNT agonist cocktail 2 days)?
A: Its value is “few Nkx2.1+ cells”.
